According to ChEMBL document CHEMBL3879881, “Substituted pyrazolyl compounds for the treatment of inflammation” (2005):

Biological target: T1, Inhibitor of nuclear factor kappa-B kinase subunit beta (Homo sapiens, UniProt O14920)
T1 sequence (O14920 whole entry): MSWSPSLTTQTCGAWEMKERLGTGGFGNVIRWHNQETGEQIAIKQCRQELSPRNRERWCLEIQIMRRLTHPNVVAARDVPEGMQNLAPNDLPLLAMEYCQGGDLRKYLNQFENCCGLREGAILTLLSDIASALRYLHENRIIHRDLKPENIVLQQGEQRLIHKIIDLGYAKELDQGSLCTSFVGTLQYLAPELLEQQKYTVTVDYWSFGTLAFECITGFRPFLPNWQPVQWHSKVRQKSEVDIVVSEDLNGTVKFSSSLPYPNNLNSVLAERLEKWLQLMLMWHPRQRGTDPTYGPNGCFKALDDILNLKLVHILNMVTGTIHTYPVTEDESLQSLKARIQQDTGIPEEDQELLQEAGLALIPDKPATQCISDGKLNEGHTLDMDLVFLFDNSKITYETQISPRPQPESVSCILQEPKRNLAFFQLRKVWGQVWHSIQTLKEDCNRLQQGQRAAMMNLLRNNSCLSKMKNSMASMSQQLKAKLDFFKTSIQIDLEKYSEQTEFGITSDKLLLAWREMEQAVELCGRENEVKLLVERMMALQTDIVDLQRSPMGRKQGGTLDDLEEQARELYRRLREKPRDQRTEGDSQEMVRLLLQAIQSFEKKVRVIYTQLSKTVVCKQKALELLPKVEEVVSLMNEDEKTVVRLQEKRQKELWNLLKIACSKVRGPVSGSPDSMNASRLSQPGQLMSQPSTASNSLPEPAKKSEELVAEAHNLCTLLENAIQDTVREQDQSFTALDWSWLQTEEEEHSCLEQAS
Test: Inhibition of human recombinant C-terminal FLAG-epitope-tagged IKK2 expressed in baculovirus using biotinylated IkappaBalpha peptide as substrate assessed as decrease in [gamma-33P]-ATP incorporation in substrate after 30 mins by scintillation counting method

CCN1CCN(c2cc(C(=O)Nc3ccc4c(c3)-c3c(c(C(N)=O)nn3-c3ccc(F)cc3)CC4)c(Cl)cn2)CC1
IC50: ≤ 1000 nM

CN1CCN(c2ncc(Cl)c(C(=O)Nc3ccc4c(c3)-c3c(c(C(N)=O)nn3-c3ccc(F)cc3)CC4)n2)CC1
IC50: ≤ 1000 nM

C[C@@H]1CN(c2cc(C(=O)Nc3ccc4c(c3)-c3c(c(C(N)=O)nn3-c3ccc(F)cc3)CC4)c(Cl)cn2)C[C@H](C)N1C
IC50: ≤ 1000 nM

C[C@@H]1CN(c2cc(C(=O)Nc3ccc4c(c3)-c3c(c(C(N)=O)nn3-c3ccc(F)cc3)CC4)c(Cl)cn2)C[C@H](C)N1
IC50: ≤ 1000 nM

CN1CCN(c2ncc(Cl)c(C(=O)Nc3ccc4c(c3)-c3c(c(C(N)=O)nn3-c3ccc5c(c3)OCO5)CC4)n2)CC1
IC50: ≤ 1000 nM

CS(=O)(=O)c1ncc(Cl)c(C(=O)Nc2ccc3c(c2)-c2c(c(C(N)=O)nn2-c2ccc4c(c2)OCO4)CC3)n1
IC50: ≤ 1000 nM

NC(=O)c1nn(-c2ccncc2)c2c1CCc1ccc(NC(=O)c3cc(Cl)ncc3Cl)cc1-2
IC50: ≤ 1000 nM

CN1CCN(c2cc(C(=O)Nc3ccc4c(c3)-c3c(c(C(N)=O)nn3-c3ccncc3)CC4)c(Cl)cn2)CC1
IC50: ≤ 1000 nM

CC(C)N1CCN(c2cc(C(=O)Nc3ccc4c(c3)-c3c(c(C(N)=O)nn3-c3ccc(F)cc3)CC4)c(Cl)cn2)CC1
IC50: ≤ 1000 nM

C[C@H]1CN(c2cc(C(=O)Nc3ccc4c(c3)-c3c(c(C(N)=O)nn3-c3ccc(F)cc3)CC4)c(Cl)cn2)CCN1C
IC50: ≤ 1000 nM

C[C@@H]1CN(c2cc(C(=O)Nc3ccc4c(c3)-c3c(c(C(N)=O)nn3-c3ccc(F)cc3)CC4)c(Cl)cn2)CCN1C
IC50: ≤ 1000 nM

C[C@H]1CN(c2cc(C(=O)Nc3ccc4c(c3)-c3c(c(C(N)=O)nn3-c3ccc(F)cc3)CC4)c(Cl)cn2)CCN1
IC50: ≤ 1000 nM
